From the supplement of paper PMC10307832

Tests used:
Experiment in all cases: relative viability (nuclei count vs DMSO), 5 days (fraction); higher = more cells survive
[1] = compound: CC(C)N(CCCNC(=O)Nc1ccc(C(C)(C)C)cc1)C[C@H]1O[C@@H](n2ccc3c(N)ncnc32)[C@H](O)[C@@H]1O + Cc1nc(Nc2ncc(C(=O)Nc3c(C)cccc3Cl)s2)cc(N2CCN(CCO)CC2)n1 [Dasatinib] (partner 0.075 µM)
In short: (§1)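 Relative viability equals treated-well nuclei counts divided by vehicle-well nuclei counts. Counts came from 4× images of lung cancer cell lines grown in 1536-well plates for 5 days after pin-tool dosing on the day after seeding. Dosing used one drug alone or a fixed anchor-drug dose plus five library-drug doses (not always all listed) in √10 steps, and values are medians of duplicate plates.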

Shikonin + OSI-027 = compound: CC(C)=CC[C@@H](O)C1=CC(=O)c2c(O)ccc(O)c2C1=O [Shikonin] + COc1cccc2cc(-c3nc([C@H]4CC[C@H](C(=O)O)CC4)n4ncnc(N)c34)[nH]c12 [OSI-027] (partner 0.5 µM)
In short: as §1

[2] = compound: CC(C)N(CCCNC(=O)Nc1ccc(C(C)(C)C)cc1)C[C@H]1O[C@@H](n2ccc3c(N)ncnc32)[C@H](O)[C@@H]1O + CS(=O)(=O)CCNCc1ccc(-c2ccc3ncnc(Nc4ccc(OCc5cccc(F)c5)c(Cl)c4)c3c2)o1 [Lapatinib] (partner 2 µM)
In short: as §1

Shikonin + Pictilisib = compound: CC(C)=CC[C@@H](O)C1=CC(=O)c2c(O)ccc(O)c2C1=O [Shikonin] + CS(=O)(=O)N1CCN(Cc2cc3nc(-c4cccc5[nH]ncc45)nc(N4CCOCC4)c3s2)CC1 [Pictilisib] (partner 1 µM)
In short: as §1

Cell Line	relative viability ([1]; first compound 0.08 µM)	relative viability ([1]; first compound 0.253 µM)	relative viability ([1]; first compound 0.8 µM)	relative viability ([1]; first compound 2.53 µM)	relative viability ([1]; first compound 8 µM)	relative viability (Shikonin + OSI-027; first compound 0.01 µM)	relative viability (Shikonin + OSI-027; first compound 0.1 µM)	relative viability (Shikonin + OSI-027; first compound 0.3162 µM)	relative viability (Shikonin + OSI-027; first compound 1 µM)	relative viability ([2]; first compound 0.08 µM)	relative viability ([2]; first compound 0.253 µM)	relative viability ([2]; first compound 0.8 µM)	relative viability ([2]; first compound 2.53 µM)	relative viability ([2]; first compound 8 µM)	relative viability (Shikonin + Pictilisib; first compound 0.01 µM)	relative viability (Shikonin + Pictilisib; first compound 0.1 µM)	relative viability (Shikonin + Pictilisib; first compound 0.3162 µM)	relative viability (Shikonin + Pictilisib; first compound 1 µM)
NCI-H2342	0.336	0.29	0.289	0.321	0.277	0.597	0.589	0.646	0.671									
HCC-15	0.596	0.684	0.574	0.581	0.591	0.719	0.705	0.692	0.744	0.864	0.876	0.68	0.818	0.804	0.699	0.789	0.732	0.832
A-427	0.671	0.644	0.641	0.61	0.594	0.503	0.594	0.514	0.509	1.01	0.99	1.05	1.04	1	0.691	0.915	0.643	0.765
NCI-H23	0.685	0.645	0.716	0.798	0.725	0.623	0.661	0.62	0.521	1		1.22	1.21	0.955	0.508	0.514	0.497	0.378
NCI-H1734	0.411	0.415	0.456	0.485	0.508	0.661	0.713	0.624	0.53	0.987	1.06	0.976	1.13	0.995	0.495	0.551	0.441	0.494
NCI-H520	0.186	0.145	0.151	0.293	0.229	0.288	0.243	0.209	0.304	0.712	0.58	0.655	0.845	0.811		0.393	0.263	0.348
RERF-LC-KJ	0.837	0.888	0.79	0.778	0.799	0.513	0.534	0.632	0.644	0.894	0.841	0.861	0.911	0.829	0.549	0.512	0.557	0.248
NCI-H1915	0.311	0.34	0.311	0.323	0.314	0.615	0.737	0.634	0.595	1.02	0.981	0.783	0.925	0.87	0.975	1.09	1.05	0.958
NCI-H1666	0.874	0.796	0.799	0.813	0.705	0.936	0.833	0.862	0.966	0.618	0.613	0.427	0.568	0.486	0.643	0.358	0.394	0.299
HCC-366	0.608	0.647	0.442	0.587	0.536	1.07	1.27	1.14	0.859	0.987	1.07	1.02	0.981	0.976	0.164	0.137	0.165	0.127
SK-MES-1	0.348	0.355	0.356	0.475	0.316	0.694	0.493	0.742	0.519	0.501	0.461	0.455	0.491	0.414	0.352	0.392	0.413	0.368
NCI-H1993	0.476			0.768	0.718	0.558	0.522	0.561	0.582	0.857	0.734	0.769	0.819	0.775		0.84	0.803	0.792
NCI-H838	0.268	0.262	0.279	0.263	0.31	0.387	0.345	0.405	0.459	0.869	0.521	0.953	0.938	0.916	0.529	0.601	0.443	0.452
SK-LU-1	0.18	0.184	0.19	0.184	0.207	0.341	0.371	0.343	0.352	0.892	0.887	0.989	1.13	0.748	0.511	0.541	0.442	0.616
NCI-H1623	0.562	0.563	0.571	0.537	0.521	0.397	0.428	0.414	0.393									
Calu-6										1.05	1.09	1.09	1.12	1.09	1.15	1.03	0.921	0.756
LC-2-ad	0.528	0.569	0.527	0.502	0.632	0.815	0.913	0.816	0.876	0.937	0.906	0.925	0.966	0.835	0.336	0.506	0.469	0.408
CAL-12T	0.405	0.398	0.386	0.453	0.402	0.658	0.936	0.546	0.488	0.61	0.477	0.572	0.625	0.652	0.368	0.409	0.35	0.414
SW 1573	0.475	0.463	0.579	0.704	0.474	0.564	0.518	0.443	0.258	1.05	1.09	1.09	1.05	1.16	0.616	0.604	0.558	0.532
NCI-H1650	0.347	0.379		0.275	0.349	0.596	0.459	0.392	0.487	0.753	0.584		0.762	0.884	0.682	0.684	0.481	0.571
BEN	0.29	0.347	0.312	0.314	0.312	0.281	0.311	0.298	0.324	0.71	0.67	0.71	0.628	0.625	0.642	0.596	0.682	0.612

Cell Line	relative viability ([1]; first compound 0.08 µM)	relative viability ([1]; first compound 0.253 µM)	relative viability ([1]; first compound 0.8 µM)	relative viability ([1]; first compound 2.53 µM)	relative viability ([1]; first compound 8 µM)	relative viability (Shikonin + OSI-027; first compound 0.01 µM)	relative viability (Shikonin + OSI-027; first compound 0.1 µM)	relative viability (Shikonin + OSI-027; first compound 0.3162 µM)	relative viability (Shikonin + OSI-027; first compound 1 µM)	relative viability ([2]; first compound 0.08 µM)	relative viability ([2]; first compound 0.253 µM)	relative viability ([2]; first compound 0.8 µM)	relative viability ([2]; first compound 2.53 µM)	relative viability ([2]; first compound 8 µM)	relative viability (Shikonin + Pictilisib; first compound 0.01 µM)	relative viability (Shikonin + Pictilisib; first compound 0.1 µM)	relative viability (Shikonin + Pictilisib; first compound 0.3162 µM)	relative viability (Shikonin + Pictilisib; first compound 1 µM)
EMC-BAC-2	0.349	0.36	0.297	0.359	0.37	0.38	0.399	0.39	0.386	0.9	0.916	0.915	0.929	0.82	0.541	0.536	0.593	0.654
LU99A	0.477	0.381	0.679	0.597	0.479	0.271	0.344	0.265	0.305	0.923	0.679	1.16	1.16	1.04	0.309	0.3	0.337	0.303
ABC-1	0.62	0.599		0.712	0.524	0.61	0.533	0.391	0.265	1.31	0.936	0.847	1.13	1.12	0.718	0.776	0.538	0.407
NCI-H2170	0.429	0.478	0.55	0.591	0.562	0.729	0.695	0.782	0.777	0.248	0.26	0.256	0.262	0.266	0.291	0.34	0.338	0.326
NCI-H1299										0.984	0.948	0.914	0.919	0.891	0.76	1.08	0.711	0.429
EBC-1										0.206	0.196	0.212	0.183	0.206	0.331	0.353	0.369	0.34
NCI-H2405	0.193	0.199	0.242	0.2	0.241	0.644	0.661	0.67	0.658	1.14		0.811	1.13	1.09	0.442	0.401	0.553	0.474
NCI-H2009	0.261	0.281	0.273	0.288	0.295	0.687	0.622	0.52	0.257	1.01	0.818	0.716	0.888	0.792	0.817	1.13	0.671	0.187
NCI-H441	0.718	0.535		0.544	0.535	0.539	0.831	0.619	0.624						0.621	0.436	0.485	0.437
PC-3 [JPC-3]	0.921	0.971	0.884	0.892	0.868	0.851	0.746	0.759	0.751	0.433	0.478	0.419	0.467	0.462	0.69	0.84	0.759	0.788
HARA	0.27	0.282	0.278	0.22	0.244	0.431	0.667	0.521	0.521	0.637	0.679	0.429	0.498	0.568	0.226	0.527	0.477	0.43
NCI-H2126	0.616	0.582	0.603	0.601	0.554	0.709	0.638	0.735	0.67	0.721	0.735	0.681	0.718	0.742	0.508	0.5	0.496	0.553
NCI-H1648						0.253	0.285	0.285	0.26									
ChaGo-K-1	0.532	0.672	0.556	0.552	0.497	0.598	0.654	0.665	0.662						0.677	1.16	0.699	1.27
HCC-44						0.512	0.513	0.466	0.747	1.08	1.11	0.857	1.05	0.959	0.663	0.835	0.564	0.728
A549										0.908	1.01	1.29	0.93	1.01	0.746	0.569	0.644	0.488
NCI-H522	0.888	0.839	0.896	0.839	0.809	0.566	0.729	0.72	0.809									
IA-LM										0.959	0.801	0.733	0.734	0.681	0.363	0.364	0.337	0.305
NCI-H1703										0.956	1.06	0.823	1.61	0.892	0.26	0.238	0.206	0.205
LCLC-103H	0.435	0.424	0.449	0.428	0.443	0.541	0.54	0.514	0.534						0.503	0.708	0.677	0.676
SW 900	0.74	0.542		0.605	0.54	0.575	0.616	0.508	0.569									
